One assay addresses T1, Epac1-BRET sensor CAMYEL (Homo sapiens, UniProt O95398, F824A/T823A).
T1 construct: made in house; host or cells: Prokaryotic expression vector pQE30-CAMYEL; used as cell extract
T1 sequence (O95398 191-923 T823A/F824A limits assumed): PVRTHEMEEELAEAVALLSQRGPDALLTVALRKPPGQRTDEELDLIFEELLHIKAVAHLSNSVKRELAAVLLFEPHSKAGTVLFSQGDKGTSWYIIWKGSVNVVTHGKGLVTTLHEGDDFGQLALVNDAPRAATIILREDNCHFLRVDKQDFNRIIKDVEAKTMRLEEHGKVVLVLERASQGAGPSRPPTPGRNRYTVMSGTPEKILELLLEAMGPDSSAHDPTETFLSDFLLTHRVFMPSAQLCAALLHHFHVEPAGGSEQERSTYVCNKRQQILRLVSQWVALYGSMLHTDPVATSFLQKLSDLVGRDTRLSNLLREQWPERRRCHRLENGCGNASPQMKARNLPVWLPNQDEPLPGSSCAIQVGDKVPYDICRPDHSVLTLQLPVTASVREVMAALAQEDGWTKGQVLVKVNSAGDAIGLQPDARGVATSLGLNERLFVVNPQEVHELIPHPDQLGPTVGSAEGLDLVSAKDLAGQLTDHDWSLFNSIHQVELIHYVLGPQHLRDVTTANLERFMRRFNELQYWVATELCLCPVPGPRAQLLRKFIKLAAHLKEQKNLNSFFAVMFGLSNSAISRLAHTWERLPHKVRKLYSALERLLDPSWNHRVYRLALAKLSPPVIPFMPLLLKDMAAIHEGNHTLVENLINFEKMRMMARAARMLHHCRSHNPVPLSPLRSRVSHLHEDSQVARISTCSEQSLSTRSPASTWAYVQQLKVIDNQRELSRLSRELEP
Nature of the assay: CAMYEL Epac1-BRET sensor assay (cAMP-induced conformational change). It counts as biochemical. As to conditions: for inhibitory activity on Epac1 activation, structure-activity comments: CAMYEL assay, compared with AM-001; for remaining activity at 20 µM: read-out: BRET ratio variation (% of 100 μM cAMP alone).

In a further assay the target is T2, Epac2 (Homo sapiens, UniProt Q8WZA2).
T2 sequence (Q8WZA2 1-867 isoform Q8WZA2-3): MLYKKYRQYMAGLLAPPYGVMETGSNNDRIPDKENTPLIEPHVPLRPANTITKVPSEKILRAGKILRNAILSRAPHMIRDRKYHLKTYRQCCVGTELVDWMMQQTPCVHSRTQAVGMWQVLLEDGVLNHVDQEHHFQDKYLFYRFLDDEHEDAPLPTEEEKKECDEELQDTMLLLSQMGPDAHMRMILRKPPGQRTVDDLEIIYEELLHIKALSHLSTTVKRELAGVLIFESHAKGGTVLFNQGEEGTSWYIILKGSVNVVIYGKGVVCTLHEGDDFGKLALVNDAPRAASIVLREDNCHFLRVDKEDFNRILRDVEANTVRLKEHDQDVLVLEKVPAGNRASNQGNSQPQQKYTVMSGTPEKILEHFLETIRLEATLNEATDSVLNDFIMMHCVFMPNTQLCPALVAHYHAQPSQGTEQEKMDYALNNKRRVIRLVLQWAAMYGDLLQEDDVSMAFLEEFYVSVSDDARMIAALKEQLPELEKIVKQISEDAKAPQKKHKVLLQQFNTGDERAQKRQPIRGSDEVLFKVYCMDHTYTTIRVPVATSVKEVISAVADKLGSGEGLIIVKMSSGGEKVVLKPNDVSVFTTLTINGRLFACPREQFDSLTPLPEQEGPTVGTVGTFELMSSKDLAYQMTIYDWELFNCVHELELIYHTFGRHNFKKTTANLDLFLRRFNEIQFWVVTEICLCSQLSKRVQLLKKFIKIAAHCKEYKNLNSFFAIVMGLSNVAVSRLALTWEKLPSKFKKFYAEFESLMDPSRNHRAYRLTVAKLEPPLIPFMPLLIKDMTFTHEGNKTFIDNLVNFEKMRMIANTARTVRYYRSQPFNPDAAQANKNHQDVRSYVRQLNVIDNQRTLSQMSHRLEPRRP
Nature of the assay: Epac GEF activity assay (b-GDP dissociation from recombinant Rap1), Epac2. In kind it is biochemical. The source says: (§1) FIGS. 4-8. […] Variations of relative fluorescence units (RFU) were studied as a function of time and fitted to single exponentials.

Assay [1] deals with T3, Epac1 (Homo sapiens, UniProt O95398).
T3 sequence (O95398 191-923 limits assumed): T1 sequence (O95398 191-923 T823A/F824A limits assumed) with A633T, A634F
Nature of the assay: biochemical.
Description: as §1

For assay [2], the target named is T4, Epac1 (Homo sapiens, UniProt O95398).
T4 sequence (O95398 1-923): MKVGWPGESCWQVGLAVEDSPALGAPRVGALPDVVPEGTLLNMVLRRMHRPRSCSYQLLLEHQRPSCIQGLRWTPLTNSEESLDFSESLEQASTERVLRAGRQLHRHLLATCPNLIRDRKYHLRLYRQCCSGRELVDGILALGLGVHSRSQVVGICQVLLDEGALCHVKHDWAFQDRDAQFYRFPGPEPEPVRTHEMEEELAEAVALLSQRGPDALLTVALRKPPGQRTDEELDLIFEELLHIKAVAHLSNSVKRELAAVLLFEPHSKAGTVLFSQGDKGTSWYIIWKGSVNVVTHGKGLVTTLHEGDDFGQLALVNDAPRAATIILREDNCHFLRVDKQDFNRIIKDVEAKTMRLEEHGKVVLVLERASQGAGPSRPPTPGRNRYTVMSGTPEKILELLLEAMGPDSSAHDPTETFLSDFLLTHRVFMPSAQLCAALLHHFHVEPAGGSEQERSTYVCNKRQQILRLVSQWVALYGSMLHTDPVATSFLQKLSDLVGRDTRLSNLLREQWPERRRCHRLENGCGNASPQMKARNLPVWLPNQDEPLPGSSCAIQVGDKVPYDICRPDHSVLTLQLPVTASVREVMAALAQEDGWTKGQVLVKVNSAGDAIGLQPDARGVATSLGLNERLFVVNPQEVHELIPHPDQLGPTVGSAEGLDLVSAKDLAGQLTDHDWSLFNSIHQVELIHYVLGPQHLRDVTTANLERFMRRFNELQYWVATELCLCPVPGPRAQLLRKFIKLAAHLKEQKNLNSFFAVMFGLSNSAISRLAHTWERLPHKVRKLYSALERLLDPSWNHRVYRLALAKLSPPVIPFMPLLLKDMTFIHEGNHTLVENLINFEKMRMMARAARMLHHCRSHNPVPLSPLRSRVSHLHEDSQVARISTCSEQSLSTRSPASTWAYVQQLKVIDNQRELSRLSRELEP
Nature of the assay: Rap1-GTP in HEK293 cells transfected with Epac1. It counts as cell-based. More on the design: expressed in transfected cells; host or cells: HEK293. As to conditions: 10 min; for inhibition of Epac1-induced Rap1 activation: 20 μM, 30 min preincubation, 8-CPT-AM 10 μM. The protocol:
FIGS. 9-13. Amounts of Rap1-GTP (n=5 in each group, mean±S.E.M) were determined in HEK293 cells transfected with Epac1 (FIGS. 9-11), Epac2A (FIG. 12) or Epac2B (FIG. 13). Cells were preincubated or not with AM-001 (FIGS. 9, 12, and 13), AM-002 (FIG. 10) or AM-003 (FIG. 11) (20 μM, 30 min) and were then treated or not with 8-CPT-AM (10 μM for Epac1 activation and 20 μM for Epac2A activation) or S-220 (50 μM for Epac2B activation) for 10 min. ESI-05 was used as positive control of Epac2A inhibition. Representative immunoblots are shown. […], *[…], ***p<0.001, ****p<0.0001, versus indicated values, one way ANOVA, Bonferroni comparison test.
Human Embryonic Kidney cells line (HEK293): HEK293 cells were maintained is in minimal essential medium with FBS (10%) and penicillin-streptomycin (1%). All media, sera, and antibiotics used in cell culture were purchased from Invitrogen.
The human Epac1/Epac2 expression vector was a gift from Dr J. L. Bos. Cells were transfected using Lipofectamine 2000 (Invitrogen) according to the manufacturer's instructions. HEK293 cells were maintained in MEM with FBS (Foetal Bovine Serum; 10%) and penicillin-streptomycin (1%). All media, sera and antibiotics used in cell culture were purchased from Invitrogen (Cergy Pontoise, France). Transient transfection experiments were performed with Lipofectamine 2000 (Invitrogen Life Technologies) in the presence of various amounts of plasmid constructs according to the manufacturer's instructions.
This cell line is commonly used for the evaluation of Epac pharmacological modulators on the cellular signaling of ectopically expressed Epac1 and Epac2 isoforms. […] Next, the inventors investigated the effect of 8-CPT-AM on the two Epac2 splice variants, Epac2A and Epac2B (FIGS. 12-13).

This note sets out measurements from US20210230179A1, “THIENO[2,3-B]PYRIDINE DERIVATIVES AS EPAC INHIBITORS AND THEIR PHARMACEUTICAL USES” (INSTITUT NATIONAL DE LA SANTE ET DE LA RECHERCHE MEDICALE …, priority 2018, published 2021).

Numbering of substitutions follows the chain as printed.

Turning to `Nc1c(C(=O)Nc2ccc(F)cc2)sc2nc(-c3cccs3)ccc12` [AM-009], at Epac1-BRET sensor CAMYEL, the “inhibitory activity on Epac1 activation, structure-activity comments” value (“inhibitory activity on Epac1 activation” below) is reported as “decreased but not abolished” and the remaining activity at 20 µM is 82.4%.

The term EC50 denotes the concentration at which the effect is half-maximal. Take `COC1C2OP(O)(=S)OCC2OC1n1c(Sc2ccc(Cl)cc2)nc2c(N)ncnc21` (stereo not drawn) [Sp-8-CPT, 8-(4-Chlorophenylthio)-2′-O-methyladenosine-3′,5′-cyclic monophosphorothioate, Sp-isomer]: the half-maximal effective concentration (EC50) at Epac2 amounted to 5.6 ± 1.1 µM. In addition, on Epac1 [1], a half-maximal response (EC50) required 7.5 ± 1.1 µM and the “Vmax of Sp-8-CPT-activated Epac1 relative to cAMP-activated Epac1” value came out at 2.5 fold. For the same compound, at Epac1 [1] (higher for Sp-8-CPT than for cAMP), the “apparent affinity of Epac1, Sp-8-CPT relative to cAMP” value is reported as 1.7 times.

`Nc1ncnc2c1ncn2[C@@H]1O[C@@H]2COP(=O)(O)O[C@H]2[C@H]1O` [cAMP, cyclic AMP, reference compound]: the half-maximal effective concentration (EC50) on Epac2 was found to be 2.8 ± 1.1 µM.

With `Nc1c(C(=O)Nc2ccc(F)cc2)sc2nc3c(c(-c4ccccc4)c12)CCCC3` [AM-007], the remaining activity at 20 µM on Epac1-BRET sensor CAMYEL is 80.5%.

In the case of `Cc1cc(-c2ccccc2)c2c(N)c(C(=O)Nc3ccccc3)sc2n1` [AM-008], the remaining activity at 20 µM on Epac1-BRET sensor CAMYEL is 82.2%.

As to `O=c1c2sc3nc(-c4cccs4)cc(-c4ccccc4)c3c2ncn1-c1ccccc1` [AM-002, reference compound], at Epac1-BRET sensor CAMYEL, the “inhibitory activity on Epac1 activation” value is “no significant inhibitory activity” and the remaining activity at 20 µM came to 93.6%. For the same compound, at Epac1 [2], the “inhibition of Epac1-induced Rap1 activation” value was “inactive”.

In the case of `CO[C@@H]1[C@@H]2OP(=O)(OCOC(C)=O)OC[C@H]2O[C@H]1n1c(Sc2ccc(Cl)cc2)nc2c(N)ncnc21` (stereo partly drawn) [8-CPT-AM, 8-(4-chlorophenylthio)-2′-O-methyladenosine-3′,5′-cyclic monophosphate, acetoxymethyl ester], the “activation of Rap1 by agonist” value on Epac1 [2] (cells overexpressing Epac1, 10 μM) is “robust activation of Rap1”.

On to `Nc1c(C(=O)Nc2ccccc2)sc2nc(-c3cccs3)cc(-c3ccccc3)c12` [AM-004], for which, on Epac1-BRET sensor CAMYEL, the “inhibitory activity on Epac1 activation” value is listed as “no significant effect on the inhibitory potency” and the remaining activity at 20 µM worked out at 47%.

With `Cc1cc(C)c2c(N)c(C(=O)Nc3ccc(F)cc3)sc2n1` [AM-010, reference compound], on Epac1-BRET sensor CAMYEL, the “inhibitory activity on Epac1 activation” value is recorded as “low activity” and the remaining activity at 20 µM turned out to be 101%.

For the compound `Nc1c(C(=O)Nc2ccccc2)sc2nc(-c3cccs3)cc(-c3ccc(F)cc3)c12` [AM-005], on Epac1-BRET sensor CAMYEL, the “inhibitory activity on Epac1 activation” value is recorded as “no significant effect on the inhibitory potency” and the remaining activity at 20 µM came to 46.9%.

Consider `CC(C)NC(=O)c1sc2nc(-c3cccs3)cc(-c3ccc(F)cc3)c2c1N` [AM-003, reference compound], for which, on Epac1-BRET sensor CAMYEL, the “inhibitory activity on Epac1 activation” value is “abolished the inhibitory effect” and the remaining activity at 20 µM stood at 100%. Besides, the “inhibition of Epac1-induced Rap1 activation” value against Epac1 [2] is “inactive”.

As to `NC(=O)c1sc2nc(-c3cccs3)cc(-c3ccc(F)cc3)c2c1N` [AM-006], on Epac1-BRET sensor CAMYEL, the “inhibitory activity on Epac1 activation” value is given as “decreased but not abolished” and the remaining activity at 20 µM turned out to be 74%.
